Laboratory results taken from patent US9738659B2, “Compositions of protein receptor tyrosine kinase inhibitors” (Purdue Pharma L.P., priority 2008, dated 2017).
pIC50: −log10 of the molar value.

Assays:
[1] = molecular target: T1, TrkA (h) (Homo sapiens, UniProt P04629); assay: Radiometric based mixed micelle kinase assay; assay type: biochemical; conditions: read-out: IC50 antagonizing the TrkA kinase activity
T1 construct: Recombinant Human Cytoplasmic Domain (amino acids 441-796); His tag; host or cells: insect cells
Experimental: Compound Inhibition in a Radiometric Based Mixed Micelle Assay:
In a final reaction volume of 25 μL, TrkA (h) (3 nM) is incubated with the kinase reaction buffer (20 mM HEPES (pH 7.5), 10 mM MgCl2, 1 mM EGTA, 0.02% Brij 35, 0.02 mg/ml BSA, 0.1 mM Na3VO4, 2 mM DTT, 1% DMSO), 0.2 mg/ml substrate PolyEY(4:1) and […], and [33P-ATP] (specific activity approx. 500 cpm/pmol, concentration as required). The reaction is initiated by the addition of the MgATP mix. After incubation for at least 40 minutes at room temperature, the reaction is stopped by the addition of 5 μL of a 3% phosphoric acid solution. 10 μL of the reaction is then spotted onto a P30 filtermat and washed three times for 5 minutes in 75 mM phosphoric acid and once in methanol prior to drying and scintillation counting. TrkA: Recombinant Human Cytoplasmic Domain (amino acids 441-796), Histidine-tagged, expressed in insect cells. Activated in vitro via auto-phosphorylation. Mw=42.8 kDa. Substrates for kinases: poly(EY) for TRKA; poly(EY)(4:1) with 2 mM MnCl2, average Mw=16 kDa Standard conditions (unless otherwise specified): 30 nM TRKA, 0.2 mg/ml poly(EY)+2 mM MnCl2, and 10 μM ([γ-^33P]) ATP. Using the similar assay condition with other kinases of recombinant human cytoplasmic domain, the activities of other kinases could be also measured.

[2] = tested on: CCI rats; assay: Chronic constriction injury (CCI) model of neuropathic pain in rats; assay type: in vivo, rat; conditions: CCI rats after single oral dose
Excerpt: Chronic Constriction Injury (CCI) Model of Neuropathic Pain in Rats.
The CCI model is one of the most commonly used mono-neuropathic pain model firstly described in details by Bennett and Xie (Bennett G J, Xie Y K. Pain. 1988; 33(1):87-107). It mimics important clinical chronic pain symptoms such as mechanical allodynia and thermal hyperalgesia. Chronic constriction injury of the sciatic nerve was produced by tying four loose ligatures around the left sciatic nerve according to the method of Bennett and Xie. […] Calibrated von Frey filaments were used to determine the lowest mechanical (tactile) threshold required to evoke a brisk paw withdrawal reflex in the rat hindpaws. Rats were allowed to acclimatize in wire mesh cages for 15-20 min prior to von Frey testing. Assessment of paw withdrawal thresholds (PWTs) using von Frey filaments was undertaken prior to CCI-surgery (pre-surgery baseline on day 0). Before the drug dosing on day 14, the pre-dose baseline was recorded for each rat. […] Drug-naïve CCI-rats (n=4-6 per group) were used. The oral vehicle was 0.5% CMC-Na/0.1% Tween 80 in distilled water. The positive control gabapentin was dissolved in the vehicle and orally given at 100 mg/kg (by oral gavage). Test compound was suspended in the vehicle and orally given at 50 mg/kg and 100 mg/kg. […]

T1 sequence (P04629 441-796): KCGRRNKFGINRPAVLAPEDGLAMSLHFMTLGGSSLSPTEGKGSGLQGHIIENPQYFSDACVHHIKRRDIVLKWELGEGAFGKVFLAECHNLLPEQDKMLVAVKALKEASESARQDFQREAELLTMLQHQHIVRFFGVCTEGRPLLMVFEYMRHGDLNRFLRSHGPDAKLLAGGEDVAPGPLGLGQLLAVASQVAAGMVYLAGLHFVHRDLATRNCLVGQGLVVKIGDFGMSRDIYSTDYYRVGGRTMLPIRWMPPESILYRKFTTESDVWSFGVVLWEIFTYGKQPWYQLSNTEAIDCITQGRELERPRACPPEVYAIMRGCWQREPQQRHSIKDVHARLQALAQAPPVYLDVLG

Compound | pIC50 [1] | Observed side effects (drowsiness, motor incoordination, other abnormality) [2]
Cc1ccc(Cl)cc1N1CCN(CCCNC(=O)c2ccc3c(c2)NC(=O)C2CCCCN32)CC1 (centres unmarked) [Compound 201, N-{3-[4-(5-chloro-2-methylphenyl)piperazin-1-yl]propyl}-6-oxo-6,6a,7,8,9,10-hexahydro-5H-pyrido[1,2-a]quinoxaline-3-carboxamide] | 7.07 | 
NCC1(CC(=O)O)CCCCC1 [gabapentin] |  | drowsiness or motor incoordination
